Assay results as given in patent US12201691B2, “Core-shell structure, preparation, medicine for external application, tape agent and cosmetic product” (SEKISUI CHEMICAL CO., LTD., priority 2017, dated 2025).
Where a name gives a salt, the structure may show the parent alone.

Experiments:
[1] = system: dorsal skin of a rabbit; assay: Primary irritation index of active ingredients (4% by weight in Plastibase); type: in vivo; settings: active ingredient 4% by weight in Plastibase, Draize scores at 24 and 72 hours
Protocol: Low skin irritation means having a primary irritation index (P.I.I.) of 5 or less. Note that, the primary irritation index can be measured by a method described below.
An active ingredient is added to an ointment base Plastibase (manufactured by Taisho Pharmaceutical Co., Ltd.) such that its content reaches 4% by weight based on the total weight, mixed, and dispersed therein to produce a formulation.
The dorsal skin of a rabbit is shaved with an electric clipper (with an electric shaver as required). Healthy skin at two points on either side of the dorsal mid-line of the dorsal skin, that is, at four points in total, is used as administration sites. Next, the formulation prepared is taken with a spatula and spread evenly on pieces of lint each having a size of 2 cm×2 cm, and the pieces are attached onto the administration sites. The lint pieces are fixed by covering with a non-woven adhesive bandage (manufactured by Nichiban Co., Ltd., MESHPORE, No. 50). Then, the administration sites are altogether wrapped with gauze and then sealed by covering with an adhesive cloth elastic bandage (manufactured by Nichiban Co., Ltd., ELASTPORE, No. 100).
Specifically, individual skin reaction scores (sum of erythema and eschar formation and edema formation) at the administration sites of each rabbit are calculated for each administration specimen at each observation time. […] Specifically, the following equations (1) and (2) are used for the calculation.

[2] = Octanol/water partition coefficient; type: physicochemical; settings: Log10(concentration in octanol phase/concentration in aqueous phase), aqueous buffer of pH 7
Protocol: Note that, in the present invention, the octanol/water partition coefficient is determined based on active ingredient concentration of each phase obtained by adding an active ingredient to a flask containing octanol and an aqueous buffer of pH 7, shaking the flask, and then determining the concentration. Specifically, the partition coefficient can be determined by calculation using an equation: Octanol/water partition coefficient=Log10(concentration in an octanol phase/concentration in an aqueous phase).

Row | Structure (SMILES) | primary irritation index (P.I.I.) [1] | logD [2] | octanol/water partition coefficient [2]
1 | CC(C(=O)O)c1ccc(CC2CCCC2=O)cc1 (stereo not drawn) [loxoprofen sodium dihydrate] | 0.3 | 0.8 | 
2 | NC(=O)CC[C@@H]1NC(=O)[C@H](Cc2ccccc2)NC(=O)[C@H](Cc2ccc(O)cc2)NC(=O)[C@@H](N)CSSC[C@@H](C(=O)N2CCC[C@H]2C(=O)N[C@@H](CCCN=C(N)N)C(=O)NCC(N)=O)NC(=O)[C@H](CC(N)=O)NC1=O [[Arg-8]-Vasopressin] |  | -4.8 | 
3 | CC12CC3CC(C)(C1)CC(N)(C3)C2 [memantine hydrochloride] | 2.5 |  | 
4 | CCCc1nc(C)c2c(=O)[nH]c(-c3cc(S(=O)(=O)N4CCN(CC)CC4)ccc3OCC)nn12 [vardenafil hydrochloride hydrate] |  |  | 0.0
5 | CCN(C)C(=O)Oc1cccc([C@H](C)N(C)C)c1 [rivastigmine] | 0.5 |  | 
